Source: patent US20230293519A1, “INTEGRIN INHIBITORS AND USES THEREOF IN COMBINATION WITH OTHER AGENTS” (Pliant Therapeutics, Inc., priority 2021, published 2023)

biological target: recombinant human integrin αvβ6 (Homo sapiens (Human), UniProt P06756+P18564); test: Solid phase integrin αvβ6 binding assay; settings: IC50 presented in four ranges; read-out: αvβ6 Inhibition IC50 (nM) - range
Protocol: (§1) Microplates were coated with recombinant human integrin αvβ6 (2 µg/mL) in PBS (100 µL/well 25° C., overnight). The coating solution was removed, washed with wash buffer (0.05% Tween 20; 0.5 mM MnCl2; in 1x TBS). The plate was blocked with 200 µL/well of Block Buffer (1% BSA; 5% sucrose; 0.5 mM MnCl2; in 1x TBS) at 37° C. for 2 h. Dilutions of testing compounds and recombinant TGFβ1 LAP (0.67 µg/mL) in binding buffer (0.05% BSA; 2.5% sucrose; 0.5 mM MnCl2; in 1x TBS) were added. The plate was incubated for 2 hours at 25° C., washed, and incubated for 1 hour with Biotin-Anti-hLAP. Bound antibody was detected by peroxidase-conjugated streptavidin. The IC50 values for testing compounds were calculated by a four-parameter logistic regression.
The compounds tested were compound samples prepared according to procedures described in the Synthetic Examples section, with the stereochemical purity as indicated in the Examples.
as §1, with “A third series of exemplary compounds was selected for testing in the solid phase integrin αvβ6 binding assay. The compounds tested were compound samples prepared according to procedures described in the Synthetic Examples section, with the stereochemical purity as indicated in the Examples. As in Example B1, microplates” for “Microplates”

Chain of recombinant human integrin αvβ6 (P06756 31-889): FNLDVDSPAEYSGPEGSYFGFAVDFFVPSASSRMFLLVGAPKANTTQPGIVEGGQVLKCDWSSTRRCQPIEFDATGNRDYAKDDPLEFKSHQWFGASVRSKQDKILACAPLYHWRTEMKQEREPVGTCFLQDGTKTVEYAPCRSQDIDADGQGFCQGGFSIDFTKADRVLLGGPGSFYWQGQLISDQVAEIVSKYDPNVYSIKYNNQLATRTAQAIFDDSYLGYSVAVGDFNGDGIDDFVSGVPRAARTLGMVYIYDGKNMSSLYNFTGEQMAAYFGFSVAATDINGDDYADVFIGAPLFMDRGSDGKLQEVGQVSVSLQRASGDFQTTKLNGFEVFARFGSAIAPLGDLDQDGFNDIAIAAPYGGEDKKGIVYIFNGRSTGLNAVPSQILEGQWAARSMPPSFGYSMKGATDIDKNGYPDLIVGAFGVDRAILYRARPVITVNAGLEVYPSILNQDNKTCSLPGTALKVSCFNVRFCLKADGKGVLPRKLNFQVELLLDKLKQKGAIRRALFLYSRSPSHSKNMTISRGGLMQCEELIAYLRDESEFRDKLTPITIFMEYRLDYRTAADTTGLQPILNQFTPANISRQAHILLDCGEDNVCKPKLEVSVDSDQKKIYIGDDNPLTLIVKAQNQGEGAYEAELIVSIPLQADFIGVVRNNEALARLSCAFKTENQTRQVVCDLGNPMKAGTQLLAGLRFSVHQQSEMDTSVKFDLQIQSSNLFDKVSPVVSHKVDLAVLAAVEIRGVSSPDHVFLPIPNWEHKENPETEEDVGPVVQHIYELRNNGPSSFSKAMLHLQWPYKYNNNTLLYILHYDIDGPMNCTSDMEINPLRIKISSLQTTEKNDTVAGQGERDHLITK
Chain of recombinant human integrin αvβ6 (P06756 890-992 partner): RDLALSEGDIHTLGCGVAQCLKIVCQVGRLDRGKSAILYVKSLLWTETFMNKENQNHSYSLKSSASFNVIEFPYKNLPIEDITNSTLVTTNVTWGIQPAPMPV
Chain of recombinant human integrin αvβ6 (P18564 22-707): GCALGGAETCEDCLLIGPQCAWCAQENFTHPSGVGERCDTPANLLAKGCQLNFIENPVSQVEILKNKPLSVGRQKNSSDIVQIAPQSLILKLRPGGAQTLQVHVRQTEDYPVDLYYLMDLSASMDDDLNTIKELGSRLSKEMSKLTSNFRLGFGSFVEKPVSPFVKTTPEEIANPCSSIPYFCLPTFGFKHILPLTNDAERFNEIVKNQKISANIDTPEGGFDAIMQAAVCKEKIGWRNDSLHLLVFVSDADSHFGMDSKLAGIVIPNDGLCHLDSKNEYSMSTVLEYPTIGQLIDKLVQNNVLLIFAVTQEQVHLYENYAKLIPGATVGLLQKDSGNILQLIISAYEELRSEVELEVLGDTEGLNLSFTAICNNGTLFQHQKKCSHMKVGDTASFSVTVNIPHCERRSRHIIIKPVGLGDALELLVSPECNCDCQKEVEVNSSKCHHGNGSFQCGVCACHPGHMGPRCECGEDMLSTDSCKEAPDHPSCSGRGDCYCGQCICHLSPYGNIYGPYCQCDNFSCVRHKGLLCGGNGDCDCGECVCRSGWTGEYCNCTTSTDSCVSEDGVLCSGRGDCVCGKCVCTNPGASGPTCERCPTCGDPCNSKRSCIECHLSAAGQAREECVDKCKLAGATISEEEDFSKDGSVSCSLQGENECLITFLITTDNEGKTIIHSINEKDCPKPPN

| Compound | IC50 |
| --- | --- |
| CS(=O)(=O)CCN(CCCCc1ccc2c(n1)NCCC2)CC[C@H](Nc1ncnc2ccccc12)C(=O)O [compound 27] | < 50 nM |
| COCCN(CCCCc1ccc2c(n1)NCCC2)CC[C@H](Nc1ncnc2cc(F)ccc12)C(=O)O [compound 7] | < 50 nM |
| CC(=O)NCCN(CCCCc1ccc2c(n1)NCCC2)CC[C@H](Nc1ncnc2ccccc12)C(=O)O [compound 63] | < 50 nM |
| Cc1nc(N[C@@H](CCN(CCCCc2ccc3c(n2)NCCC3)CCOc2cncc(F)c2)C(=O)O)c2ccc(F)cc2n1 [compound 61] | < 50 nM |
| CO[C@H](C)CN(CCCCc1ccc2c(n1)NCCC2)CC[C@H](Nc1ccnc(C(F)(F)F)n1)C(=O)O [compound 87] | 250 to 1000 nM |
| O=C(O)[C@H](CCN(CCCCc1ccc2c(n1)NCCC2)CC(F)F)Nc1ncc(C2CC2)cn1 [compound 146] | > 1000 nM |
| COCCN(CCCCc1ccc2c(n1)NCCC2)CC[C@H](Nc1ncnc2c(F)cccc12)C(=O)O [compound 20] | < 50 nM |
| CN(C)C(=O)CN(CCCCc1ccc2c(n1)NCCC2)CC[C@H](Nc1ccnc(C(F)(F)F)n1)C(=O)O [compound 145] | < 50 nM |
| O=C(O)[C@H](CCN(CCCF)CCCCc1ccc2c(n1)NCCC2)Nc1ncnc2ccccc12 [compound 30] | < 50 nM |
| O=C(O)[C@H](CCN(CCCCc1ccc2c(n1)NCCC2)C1CC(F)(F)C1)Nc1ncnc2ccccc12 [compound 9] | > 1000 nM |
| CS(=O)(=O)CCN(CCCCc1ccc2c(n1)NCCC2)CC[C@H](Nc1ncc(C(F)(F)F)cn1)C(=O)O [compound 102] | > 1000 nM |
| O=C(O)[C@H](CCN(CCO)CCCCc1ccc2c(n1)NCCC2)Nc1ncnc2ccccc12 [compound 75] | < 50 nM |
| O=C(O)[C@H](CCN(CCCCc1ccc2c(n1)NCCC2)CC(F)F)Nc1ncnc2ccccc12 [compound 8] | 50 to 250 nM |
| O=C(O)[C@H](CCN(CCCCc1ccc2c(n1)NCCC2)CCOCC(F)F)Nc1ncnc2ccccc12 [compound 50] | < 50 nM |
| O=C(O)[C@H](CCN(CCCCc1ccc2c(n1)NCCC2)CC(F)F)Nc1cc(-c2ccccc2)ncn1 [compound 142] | > 1000 nM |
| CO[C@H](C)CN(CCCCc1ccc2c(n1)NCCC2)CC[C@H](Nc1ncc(F)cn1)C(=O)O [compound 78] | < 50 nM |
| O=C(O)[C@H](CCN(CCCCc1ccc2c(n1)NCCC2)CCOc1ccccc1)Nc1ncnc2[nH]ncc12 [compound 90] | < 50 nM |
| CO[C@H](C)CN(CCCCc1ccc2c(n1)NCCC2)CC[C@H](Nc1ncc(C#N)cn1)C(=O)O [compound 84] | 250 to 1000 nM |
| CS(=O)(=O)CCN(CCCCc1ccc2c(n1)NCCC2)CC[C@H](Nc1nc(-c2cccnc2)nc2ccccc12)C(=O)O [compound 107] | 250 to 1000 nM |
| COCCN(CCCCc1ccc2c(n1)NCCC2)CC[C@H](Nc1nc(C(F)(F)F)nc2ccccc12)C(=O)O [compound 14] | < 50 nM |
| O=C(O)[C@H](CCN(CCCCc1ccc2c(n1)NCCC2)CC(F)F)Nc1ncc(C(F)(F)F)cn1 [compound 95] | > 1000 nM |
| O=C(O)[C@H](CCN(CCCCc1ccc2c(n1)NCCC2)CCOc1ccc(F)cc1)Nc1ncnc2[nH]ncc12 [compound 143] | 50 to 250 nM |
| O=C(O)[C@H](CCN(CCCCc1ccc2c(n1)NCCC2)CCC(F)F)Nc1ncc(Br)cn1 [compound 131] | 50 to 250 nM |
| O=C(O)[C@H](CCN(CCCCc1ccc2c(n1)NCCC2)CC(F)F)Nc1ncc(Br)cn1 [compound 96] | > 1000 nM |
| Cn1ncc2c(N[C@@H](CCN(CCCCc3ccc4c(n3)NCCC4)CCOc3ccccc3)C(=O)O)ncnc21 [compound 82] | < 50 nM |
| Cn1ncc2c(N[C@@H](CCN(CCCCc3ccc4c(n3)NCCC4)CCS(C)(=O)=O)C(=O)O)ncnc21 [compound 101] | 50 to 250 nM |
| Cc1cc(N[C@@H](CCN(CCCCc2ccc3c(n2)NCCC3)CC(F)F)C(=O)O)nc(-c2ccncc2)n1 [compound 122] | 250 to 1000 nM |
| COCCN(CCCCc1ccc2c(n1)NCCC2)CC[C@H](Nc1nccnc1C#N)C(=O)O [compound 67] | < 50 nM |
| O=C(O)[C@H](CCN(CCCCc1ccc2c(n1)NCCC2)CCOc1ccccc1)Nc1ncc(C(F)(F)F)cn1 [compound 89] | < 50 nM |
| O=C(O)[C@H](CCN(CCCCc1ccc2c(n1)NCCC2)CC(F)F)Nc1ncc(F)cn1 [compound 121] | > 1000 nM |

More lines, now with the values ahead:

| IC50 | Compound |
| --- | --- |
| > 1000 nM | COC[C@@H](F)CN(CCCCc1ccc2c(n1)NCCC2)CC[C@H](Nc1cc(-n2cccn2)ncn1)C(=O)O [compound 108] |
| < 50 nM | CCOCCN(CCCCc1ccc2c(n1)NCCC2)CC[C@H](Nc1ncnc2ccccc12)C(=O)O [compound 55] |
| 50 to 250 nM | O=C(O)[C@H](CCN(CCCCc1ccc2c(n1)NCCC2)C1CC1)Nc1ncnc2[nH]ncc12 [compound 116] |
| 250 to 1000 nM | CO[C@H](C)CN(CCCCc1ccc2c(n1)NCCC2)CC[C@H](Nc1ccncn1)C(=O)O [compound 127] |
| 50 to 250 nM | CS(=O)(=O)CCN(CCCCc1ccc2c(n1)NCCC2)CC[C@H](Nc1ncnc2[nH]ncc12)C(=O)O [compound 125] |
| < 50 nM | COC[C@@H](F)CN(CCCCc1ccc2c(n1)NCCC2)CC[C@H](Nc1nc(C)nc2cc(F)ccc12)C(=O)O [compound 32] |
| < 50 nM | COC[C@@H](F)CN(CCCCc1ccc2c(n1)NCCC2)CC[C@H](Nc1ncnc2ccccc12)C(=O)O [compound 31] |
| < 50 nM | COC[C@@H](F)CN(CCCCc1ccc2c(n1)NCCC2)CC[C@H](Nc1nc(-c2cccnc2)nc2ccccc12)C(=O)O [compound 109] |
| < 50 nM | COCCN(CCCCc1ccc2c(n1)NCCC2)CC[C@H](Nc1nc(C)nc2ccccc12)C(=O)O [compound 10] |
| < 50 nM | CN(C)C(=O)CN(CCCCc1ccc2c(n1)NCCC2)CC[C@H](Nc1ncnc2ccccc12)C(=O)O [compound 64] |
| > 1000 nM | O=C(O)[C@H](CCN(CCCCc1ccc2c(n1)NCCC2)CC(F)F)Nc1cc(-n2cccn2)ncn1 [compound 98] |
| < 50 nM | COC[C@@H](F)CN(CCCCc1ccc2c(n1)NCCC2)CC[C@H](Nc1ncnc2c1cnn2C)C(=O)O [compound 105] |
| > 1000 nM | CS(=O)(=O)CCN(CCCCc1ccc2c(n1)NCCC2)CC[C@H](Nc1ccnc(C(F)(F)F)n1)C(=O)O [compound 104] |
| < 50 nM | O=C(O)[C@H](CCN(CCCCc1ccc2c(n1)NCCC2)CCOc1ccccc1)Nc1cc(-c2ccccc2)ncn1 [compound 93] |
| < 50 nM | O=C(O)[C@H](CCN(CCCF)CCCCc1ccc2c(n1)NCCC2)Nc1ncc(C(F)(F)F)cn1 [compound 137] |
| < 50 nM | O=C(O)[C@H](CCN(CCCCc1ccc2c(n1)NCCC2)CCOc1ccccc1)Nc1nc(-c2cccnc2)nc2ccccc12 [compound 94] |

| IC50 | Compound |
| --- | --- |
| 50 to 250 nM | CO[C@H](C)CN(CCCCc1ccc2c(n1)NCCC2)CC[C@H](Nc1ncc(Br)cn1)C(=O)O [compound 86] |
| > 1000 nM | O=C(O)[C@H](CCN(CCCCc1ccc2c(n1)NCCC2)CC(F)F)Nc1ncncc1-c1ccccc1 [compound 119] |
| < 50 nM | CO[C@H](C)CN(CCCCc1ccc2c(n1)NCCC2)CC[C@H](Nc1nc(C)nc2ccccc12)C(=O)O [compound 66] |
| < 50 nM | Cc1nc(N[C@@H](CCN(CCCCc2ccc3c(n2)NCCC3)CCOC2CC2(F)F)C(=O)O)c2ccc(F)cc2n1 (stereo partly shown) [compound 42] |
| < 50 nM | O=C(O)[C@H](CCN(CCCCc1ccc2c(n1)NCCC2)CCOc1ccc(F)cc1)Nc1ncc(C(F)(F)F)cn1 [compound 139] |
| < 50 nM | O=C(O)[C@H](CCN(CCCCc1ccc2c(n1)NCCC2)C1CC1)Nc1ncc(C(F)(F)F)cn1 [compound 114] |
| < 50 nM | Cn1ncc2c(N[C@@H](CCN(CCCF)CCCCc3ccc4c(n3)NCCC4)C(=O)O)ncnc21 [compound 136] |
| < 50 nM | N#Cc1cnc(N[C@@H](CCN(CCCCc2ccc3c(n2)NCCC3)CCOc2ccccc2)C(=O)O)nc1 [compound 111] |
| < 50 nM | COc1cccc2c(N[C@@H](CCN(CCCF)CCCCc3ccc4c(n3)NCCC4)C(=O)O)ncnc12 [compound 43] |
| < 50 nM | COCCN(CCCCc1ccc2c(n1)NCCC2)CCC(Nc1ncnc2ncccc12)C(=O)O (stereo not shown) [compound 11] |
| 50 to 250 nM | Cn1ncc2c(N[C@@H](CCN(CCCCc3ccc4c(n3)NCCC4)CCC(F)F)C(=O)O)ncnc21 [compound 133] |
| < 50 nM | O=C(O)[C@H](CCN(CCCCc1ccc2c(n1)NCCC2)CCOc1cc(F)cc(F)c1)Nc1ncnc2ccccc12 [compound 47] |
| < 50 nM | Cc1ncccc1OCCN(CCCCc1ccc2c(n1)NCCC2)CCC(Nc1ncnc2ccccc12)C(=O)O (stereo not shown) [compound 52] |
| < 50 nM | Cc1nc(N[C@@H](CCN(CCCCc2ccc3c(n2)NCCC3)CC2CC(F)(F)C2)C(=O)O)c2ccc(F)cc2n1 [compound 33] |
| < 50 nM | CO[C@H](C)CN(CCCCc1ccc2c(n1)NCCC2)CC[C@H](Nc1ccnc(-c2ccccc2)n1)C(=O)O [compound 73] |
